# From patent US20040038855A1 (priority 1999, published 2004)
# What was measured:
# [1] = tested on: micturition reflex, conscious male Sprague Dawley rats; assay: Continuous Slow Transvesicular Infusion (CSTI) rat model; assay type: in vivo; design: key to Effect of MCH1 antagonist in the CSTI model: B = Produced an increase in bladder capacity in rats relative to baseline capacity; conditions: bladder capacity, intragastric
# Protocol: The effects of compounds on the micturition reflex were assessed in the “distension-induced rhythmic contraction” (DIRC), as described in previous publications (e.g. Maggi et al, 1987; Morikawa et al, 1992), and Continuous Slow Transvesicular Infusion (CSTI) models in rats. Male Sprague Dawley rats weighing approximately 300 g were used for the study. Rats were anaesthetized with pentobarbitone sodium (50 mg/kg, i.p). Through a median abdominal incision, bladder was exposed and a polyethylene cannula (PE 50) was introduced into the bladder through a small cut on the dome of the bladder and the cannula was secured with a purse string suture. The other end of the cannula was exteriorized subcutaneously at the dorsal neck area. Similarly, another cannula (PE 50) was introduced into the stomach through a paramedian abdominal incision with the free end exteriorized subcutaneously to the neck region. The surgical wounds were closed with silk 4-0 suture and the animal was allowed to recover with appropriate post surgical care. On the following day, the animal was placed in a rat restrainer. The open end of the bladder cannula was connected to a pressure transducer as well as infusion pump through a three-way stopcock. The bladder voiding cycles were initiated by continuous infusion of normal saline at the rate of 100 ul/min. The repetitive voiding contractions were recorded on a Power Lab on-line data acquisition software. After recording the basal voiding pattern for an hour, the test drug or vehicle was administered directly into stomach through the intragastric catheter and the voiding cycles were monitored for 5 hours. Micturition pressure and frequency were calculated before and after the treatment (at every 30 min interval) for each animal. Bladder capacity was calculated from the micturition frequency, based on the constant infusion of 100 ul/min. The effect of the test drug was expressed as a percentage of basal, pre-drug bladder capacity. WAY 100635 was used as positive control for comparison.
# [2] = tested on: micturition reflex, anesthetized female Sprague Dawley rats; assay: Distension-induced rhythmic contraction (DIRC) model; assay type: in vivo, rat; design: key: A = Produced a significant increase in contraction interval relative to pre-drug interval; conditions: contraction interval, i.v. or i.p.
# Protocol: The effects of compounds on the micturition reflex were assessed in the “distension-induced rhythmic contraction” (DIRC), as described in previous publications (e.g. Maggi et al, 1987; Morikawa et al, 1992), and Continuous Slow Transvesicular Infusion (CSTI) models in rats.
# Female Sprague Dawley rats weighing approximately 300 g were anesthetized with subcutaneous urethane (1.2 g/kg). The trachea was cannulated with PE240 tubing to provide a clear airway throughout the experiment. A midline abdominal incision was made and the left and right ureters were isolated. The ureters were ligated distally (to prevent escape of fluids from the bladder) and cannulated proximally with PE10 tubing. The incision was closed using 4-0 silk sutures, leaving the PE10 lines routed to the exterior for the elimination of urine. The bladder was canulated via the transurethral route using PE50 tubing inserted 2.5 cm beyond the urethral opening. This cannula was secured to the tail using tape and connected to a pressure transducer. To prevent leakage from the bladder, the cannula was tied tightly to the exterior urethral opening using 4-0 silk.
# To initiate the micturition reflex, the bladder was first emptied by applying pressure to the lower abdomen, and then filled with normal saline in […] (maximum 2 ml) until spontaneous bladder contractions occurred (typically 20-40 mmHg at a rate of one contraction every 2 to 3 minutes. Once a regular rhythm was established, vehicle (saline) or Test Compounds were administered i.v. or i.p. to explore their effects on bladder activity. The 5-HT1A antagonist WAY-100635 was given as a positive control. Data were expressed as contraction interval (in seconds) before drug application (basal), or after the application of vehicle or test article.
# rat MCH1 receptor = target: T1, rat MCH1 receptor (Rattus norvegicus, UniProt P97639); assay: Binding affinity (Ki) at the rat MCH1 receptor; conditions: Examples 142-153; read-out: Ki (nM) rMCH1
# T1 construct: expressed in transfected cells
# T1 sequence (P97639 whole entry): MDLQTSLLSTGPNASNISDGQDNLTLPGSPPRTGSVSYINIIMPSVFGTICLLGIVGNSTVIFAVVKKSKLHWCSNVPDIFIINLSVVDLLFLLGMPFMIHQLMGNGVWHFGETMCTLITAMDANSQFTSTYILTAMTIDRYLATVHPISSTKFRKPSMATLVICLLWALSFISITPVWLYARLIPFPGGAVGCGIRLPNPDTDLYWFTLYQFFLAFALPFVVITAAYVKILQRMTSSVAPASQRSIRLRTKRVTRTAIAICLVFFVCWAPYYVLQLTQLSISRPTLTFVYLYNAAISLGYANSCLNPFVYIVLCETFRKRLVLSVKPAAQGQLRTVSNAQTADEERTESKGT
# [3] = target: T2, MCH1 receptor binding sites in the rat CNS (Rattus norvegicus, UniProt P97639); assay: Receptor autoradiography with [3H]Compound 10 on rat brain and spinal cord sections; design: key to Density of MCH1 receptor binding sites: absent (−); weak (+); moderate (++); heavy (+++); intense (++++); conditions: for Density of MCH1 receptor binding sites: 0.1 nM [3H] Compound 10, 1 μM prazosin, 100 μM dopamine, rat CNS
# T2 construct: from tissue; host or cells: coronal brain and spinal cord sections of male Sprague-Dawley rats
# T2 sequence (P97639 whole entry): as above
# Protocol: Male Sprague-Dawley rats (Charles Rivers, Rochester, N.Y.) were euthanized using CO2 and decapitated and their brains rapidly removed and frozen on crushed dry ice. Coronal sections were cut at 20 μm using a cryostat and thaw-mounted onto gelatin-coated slides then stored at −20° C. until use.
# Dopamine, prazosin, and phenanthroline were obtained from Sigma (St. Louis, Mo.). Phenylmethylsulfonyl Fluoride (PMSF) was from Calbiochem (La Jolla, Calif.). See also Chemical Synthetic Methods described hereinafter.
# Tissue sections were allowed to equilibrate to room temperature for one hour. Sections were incubated at 25° C. for 1.5 hours in 50 mM Tris-HCl buffer, pH 7.4, containing 10 mM MgCl2, 0.16 mM PMSF, 0.3 mM phenanthroline, 0.2% bovine serum albumin (Boehringer Mannheim, Indianapolis, Ind.), 100 μM dopamine, 1 μM prazosin, […] Following incubation the sections were washed twice for 5 minutes each in 4° C. 50 mM Tris-buffer, pH 7.4, then rapidly dipped in ice-cold distilled water to remove the salts. Tissues were dried under a stream of cold air and apposed together with ^3H-plastic standard scales, to Hyperfilm-^3H (Amersham, Piscataway, N.J.) for 6 weeks. Films were developed using a Kodak developer-D19 and Rapid fixer (Kodak, Rochester, N.Y.). […]
# human MCH1 receptor = human MCH1 receptor (Homo sapiens, UniProt Q99705); assay: Saturation and competition binding of [3H]Compound 10, membranes of Cos-7 cells transfected with MCH1; design: expressed in transfected cells; host or cells: COS-7
# Chain of human MCH1 receptor (Q99705 whole entry): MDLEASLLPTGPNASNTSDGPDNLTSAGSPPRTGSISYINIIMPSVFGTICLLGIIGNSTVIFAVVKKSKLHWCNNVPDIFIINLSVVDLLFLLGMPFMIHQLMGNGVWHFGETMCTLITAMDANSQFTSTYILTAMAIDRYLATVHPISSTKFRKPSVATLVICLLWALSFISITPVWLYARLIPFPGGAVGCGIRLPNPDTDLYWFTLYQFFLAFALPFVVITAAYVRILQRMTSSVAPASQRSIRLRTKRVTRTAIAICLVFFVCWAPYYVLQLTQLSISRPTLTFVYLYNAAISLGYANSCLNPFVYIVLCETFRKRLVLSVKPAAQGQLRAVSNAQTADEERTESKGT
# Protocol: Saturation equilibrium binding of [3H]Compound 10 to the human MCH1 receptor. Membrane preparations from Cos-7 cells transfected with MCH1 were incubated with varying concentrations of [3H]Compound 10 (SA: 56 Ci/mmol) at room temperature for 90 min, in a volume of 0.250 ml. The reaction was terminated by filtration in GF/C filters, and the radioactivity determined by scintillation counting. Non-specific binding was defined as the amount of radioactivity retained in the filter after incubating the reaction mixture in the presence of unlabeled Compound 10 ([…]).
# Competition binding of [3H]Compound 10 to the human MCH1 receptor. […] The reaction was terminated by filtration in GF/C filters and the radioactivity bound to the membrane was determined by scintillation counting.
# [3H]Compound 10 was tested for its ability to bind to membrane preparations of cells expressing the human MCH1 receptor.
smiles,measurement,setting,value
Cc1onc(-c2c(Cl)cccc2Cl)c1C(=O)NCCCCCN1CCC(c2cccc(NC(=O)C(C)C)c2)CC1 [Example 149],Effect of MCH1 antagonist in the CSTI model,[1],B
same,Effect of MCH1 antagonist in the DIRC model,[2],A
same,Ki,rat MCH1 receptor,7.1 nM
CC(=O)c1cccc(O[C@H](CCN2CCC(c3cccc(NC(=O)C(C)C)c3)CC2)c2ccccc2)c1 [Example 151],Effect of MCH1 antagonist in the CSTI model,[1],B
same,Effect of MCH1 antagonist in the DIRC model,[2],A
same,Ki,rat MCH1 receptor,3.8 nM
"[3H]C1CN(CCCNC(=O)N2C(=O)NC(COC)=C(C(=O)OC)[C@@H]2c2ccc(F)c(F)c2)CCC1([3H])c1cccc(NC(C)=O)c1 (stereo partly drawn) [[3H]Compound 10, TRITIATED METHYL (4S)-3-{[(3-{4-[3-(ACETYLAMINO)PHENYL]-1-PIPERIDINYL}PROPYL)AMINO]CARBONYL}-4-(3,4-DIFLUOROPHENYL)-6-(METHOXYMETHYL)-2-OXO-1,2,3,4-TETRAHYDRO-5-PYRIMIDINECARBOXYLATE]",specific binding,"[3]; 0.1 nM with 100 μM dopamine and 1 μM prazosin, nonspecific: 10 μM unlabeled Compound 10",approximately 95%
same,Density of MCH1 receptor binding sites,[3]; Amygdala: Anterior cortical n.,+
same,Density of MCH1 receptor binding sites,[3]; Amygdala: Basolateral amygdaloid n.,+
same,Density of MCH1 receptor binding sites,[3]; Amygdala: Bed n. Of the stria terminalis,++
same,Density of MCH1 receptor binding sites,[3]; Amygdala: Central amygdaloid n.,+
same,Density of MCH1 receptor binding sites,"[3]; Basal Ganglia: Accumbens n., core",+++
same,Density of MCH1 receptor binding sites,"[3]; Basal Ganglia: Accumbens n., shell",++++
same,Density of MCH1 receptor binding sites,[3]; Basal Ganglia: Caudate-putamen,+++
same,Density of MCH1 receptor binding sites,[3]; Basal Ganglia: Globus pallidus,−
same,Density of MCH1 receptor binding sites,[3]; Basal Ganglia: Medial septal n.,+
same,Density of MCH1 receptor binding sites,[3]; Basal Ganglia: Septohippocampal n.,+
same,Density of MCH1 receptor binding sites,[3]; Cerebellum,−
same,Density of MCH1 receptor binding sites,"[3]; Diencephalon, Thalamus: Anterodorsal n.",+
same,Density of MCH1 receptor binding sites,"[3]; Diencephalon, Thalamus: Centromedial n.",+
same,Density of MCH1 receptor binding sites,"[3]; Diencephalon, Thalamus: Mediodorsal n.",−
same,Density of MCH1 receptor binding sites,"[3]; Diencephalon, Thalamus: Paraventricular n.",+
same,Density of MCH1 receptor binding sites,"[3]; Diencephalon, Thalamus: Reticular n.",+
same,Density of MCH1 receptor binding sites,[3]; Diencephalon: Hypothalamus,+
same,Density of MCH1 receptor binding sites,[3]; Hippocampal formation: CA1,++
same,Density of MCH1 receptor binding sites,[3]; Hippocampal formation: CA2,++
same,Density of MCH1 receptor binding sites,[3]; Hippocampal formation: CA3,++
same,Density of MCH1 receptor binding sites,[3]; Hippocampal formation: Pre/parasubiculum,++
same,Density of MCH1 receptor binding sites,[3]; Locus coeruleus (listed under Mesencephalon),++
same,Density of MCH1 receptor binding sites,[3]; Mesencephalon: Caudal linear raphe n.,+
same,Density of MCH1 receptor binding sites,[3]; Mesencephalon: Interpeduncular n.,++
same,Density of MCH1 receptor binding sites,[3]; Mesencephalon: Periaqueductal gray,+
same,Density of MCH1 receptor binding sites,[3]; Mesencephalon: Pontine n.,+
same,Density of MCH1 receptor binding sites,[3]; Mesencephalon: Substantia nigra,+
same,Density of MCH1 receptor binding sites,[3]; Mesencephalon: Superior colliculus,++
same,Density of MCH1 receptor binding sites,[3]; Olfactory System: Anterior olfactory n.,+
same,Density of MCH1 receptor binding sites,"[3]; Olfactory System: Islands of Calleja, major",+++
same,Density of MCH1 receptor binding sites,[3]; Olfactory System: Olfactory tubercle,+++
same,Density of MCH1 receptor binding sites,[3]; Spinal cord: Dorsal horn,+
same,Density of MCH1 receptor binding sites,[3]; Spinal cord: Ventral horn,+
same,Density of MCH1 receptor binding sites,[3]; Telencephalon: Claustrum,++
same,Density of MCH1 receptor binding sites,[3]; Telencephalon: Dorsal endopiriform n.,+
same,maximum number of binding sites (Bmax),human MCH1 receptor,870 fmol/mg protein
